Measurements as given in patent publication US6900219B2, “ABCA-1 elevating compounds” (CV Therapeutics, Inc., priority 2002, dated 2005).

Each compound was assayed on ABCA-1 gene (assay: compounds tested and found to elevate cellular expression of the ABCA-1 gene (Examples 1-6; test not named)).
Type: cell-based
Procedure: Activity testing is conducted as described in those patents and patent applications referenced above, and in the Examples below, and by methods apparent to one skilled in the art.

SMILES	cellular expression of the ABCA-1 gene
Cc1onc(-c2ccccc2Cl)c1C(=O)Nc1ncc(-c2ccccc2)s1 [[3-(2-chlorophenyl)-5-methylisoxazol-4-yl]-N-(5-phenyl(1,3-thiazol-2-yl))carboxamide]	elevate cellular expression of the ABCA-1 gene
O=C(Nc1ncc(-c2ccccc2)s1)c1ccc(C(F)(F)F)c(F)c1 [[3-fluoro-4-(trifluoromethyl)phenyl]-N-(5-phenyl(1,3-thiazol-2-yl))carboxamide]	elevate cellular expression of the ABCA-1 gene
CCc1c(C(=O)N2CCN(C(=O)c3cccc(Br)c3)C(C)C2)cnn1-c1nc(-c2ccc(Cl)cc2)cs1 (stereo not drawn) [[4-(3-bromo-benzoyl)-3-methyl-piperazin-1-yl]-{1-[4-(4-chloro-phenyl)-thiazol-2-yl]-5-ethyl-1H-pyrazol-4-yl}-methanone]	elevate cellular expression of the ABCA-1 gene
CCc1c(C(=O)N2CCN(C(=O)c3ccc(-c4ccccc4)cc3)C(C)C2)cnn1-c1nc(-c2ccc(OC)cc2)cs1 (stereo not drawn) [[4-(biphenyl-4-carbonyl)-3-methyl-piperazin-1-yl]-{5-ethyl-1-[4-(4-methoxy-phenyl)-thiazol-2-yl]-1H-pyrazol-4-yl}-methanone]	elevate cellular expression of the ABCA-1 gene
CN(C)c1ccc(C(=O)NC2=NCCS2)cc1 [[4-(dimethylamino)phenyl]-N-(1,3-thiazolin-2-yl)carboxamide]	elevate cellular expression of the ABCA-1 gene
CN(C)c1ccc(C(=O)NC2=NC(=O)CS2)cc1 [[4-(dimethylamino)phenyl]-N-(4-oxo(1,3-thiazolin-2-yl))carboxamide]	elevate cellular expression of the ABCA-1 gene
CC(C)c1ccc(C(=O)NC2=NCCS2)cc1 [[4-(methylethyl)phenyl]-N-(1,3-thiazolin-2-yl)carboxamide]	elevate cellular expression of the ABCA-1 gene
CC(C)(C)c1ccc(C(=O)NC2=NCCS2)cc1 [[4-(tert-butyl)phenyl]-N-(1,3-thiazolin-2-yl)carboxamide]	elevate cellular expression of the ABCA-1 gene
CC(C)(C)c1ccc(C(=O)Nc2nc(-c3ccc4ccccc4c3)cs2)cc1 [[4-(tert-butyl)phenyl]-N-(4-(2-naphthyl)(1,3-thiazol-2-yl))carboxamide]	elevate cellular expression of the ABCA-1 gene
CC(C)(C)c1ccc(C(=O)NC2=NC(=O)CS2)cc1 [[4-(tert-butyl)phenyl]-N-(4-oxo(1,3-thiazolin-2-yl))carboxamide]	elevate cellular expression of the ABCA-1 gene
CC(C)(C)c1ccc(C(=O)Nc2ncc(-c3ccccc3)s2)cc1 [[4-(tert-butyl)phenyl]-N-(5-phenyl(1,3-thiazol-2-yl))carboxamide]	elevate cellular expression of the ABCA-1 gene
CC(C)(C)c1ccc(C(=O)Nc2nc(-c3ccc(Cl)cc3)cs2)cc1 [[4-(tert-butyl)phenyl]-N-[4-(4-chlorophenyl)(1,3-thiazol-2-yl)]carboxamide]	elevate cellular expression of the ABCA-1 gene
CC(C)(C)c1ccc(C(=O)N(CCc2ccccn2)Cc2ccccc2[N+](=O)[O-])cc1 [[4-(tert-butyl)phenyl]-N-[(2-nitrophenyl)methyl]-N-(2-(2-pyridyl)ethyl)carboxamide]	elevate cellular expression of the ABCA-1 gene
CC(c1nc2ccccc2c(=O)n1-c1ccc2ccccc2c1)N(CCN(C)C)C(=O)Nc1ccc(F)cc1F (stereo not drawn) [[(2,4-difluorophenyl)amino]-N-[2-(dimethylamino)ethyl]-N-[(3-(2-naphthyl)-4-oxo(3-hydroquinazolin-2-yl))ethyl]carboxamide]	elevate cellular expression of the ABCA-1 gene
CCC(c1nc2ccccc2c(=O)n1-c1ccc(Cl)cc1)N(CCOC)C(=O)Nc1ccc(F)cc1F (stereo not drawn) [[(2,4-difluorophenyl)amino]-N-{[3-(4-chlorophenyl)-4-oxo(3-hydroquinazolin-2-yl)]propyl}-N-(2-methoxyethyl)carboxamide]	elevate cellular expression of the ABCA-1 gene
Cc1cccc(C)c1NC(=O)N(Cc1ccccc1)C(C)c1nc2ccccc2c(=O)n1-c1ccc2ccccc2c1 (stereo not drawn) [[(2,6-dimethylphenyl)amino]-N-[(3-(2-naphthyl)-4-oxo(3-hydroquinazolin-2-yl))ethyl]-N-benzylcarboxamide]	elevate cellular expression of the ABCA-1 gene
Cc1ccccc1NC(=O)N(CC(C)C)C(C)c1nc2ccccc2c(=O)n1-c1ccc2ccccc2c1 (stereo not drawn) [[(2-methylphenyl)amino]-N-(2-methylpropyl)-N-[(3-(2-naphthyl)-4-oxo(3-hydroquinazolin-2-yl))ethyl]carboxamide]	elevate cellular expression of the ABCA-1 gene
CC(C)CN(C(=O)Nc1cccc(Br)c1)C(C)c1nc2ccccc2c(=O)n1-c1ccc2ccccc2c1 (stereo not drawn) [[(3-bromophenyl)amino]-N-(2-methylpropyl)-N-[(3-(2-naphthyl)-4-oxo(3-hydroquinazolin-2-yl))ethyl]carboxamide]	elevate cellular expression of the ABCA-1 gene
CC(C)CN(C(=O)Nc1cccc(Cl)c1)C(C)c1nc2ccccc2c(=O)n1-c1ccc2ccccc2c1 (stereo not drawn) [[(3-chlorophenyl)amino]-N-(2-methylpropyl)-N-[(3-(2-naphthyl)-4-oxo(3-hydroquinazolin-2-yl))ethyl]carboxamide]	elevate cellular expression of the ABCA-1 gene
O=C(Nc1cccc(Cl)c1)Nc1ccc2c(c1)CCC2 [[(3-chlorophenyl)amino]-N-indan-5-ylcarboxamide]	elevate cellular expression of the ABCA-1 gene

SMILES	cellular expression of the ABCA-1 gene
CCCN(C(=O)Nc1cccc(F)c1)C(C)c1nc2ccccc2c(=O)n1-c1ccc2ccccc2c1 (stereo not drawn) [[(3-fluorophenyl)amino]-N-[(3-(2-naphthyl)-4-oxo(3-hydroquinazolin-2-yl))ethyl]-N-propylcarboxamide]	elevate cellular expression of the ABCA-1 gene
CC(=O)c1ccc(NC(=O)Nc2ccc(Cl)c(Cl)c2)cc1 [[(4-acetylphenyl)amino]-N-(3,4-dichlorophenyl)carboxamide]	elevate cellular expression of the ABCA-1 gene
CCCN(C(=O)Nc1ccc(Br)cc1)C(C)c1nc2ccccc2c(=O)n1-c1ccc2ccccc2c1 (stereo not drawn) [[(4-bromophenyl)amino]-N-[(3-(2-naphthyl)-4-oxo(3-hydroquinazolin-2-yl))ethyl]-N-propylcarboxamide]	elevate cellular expression of the ABCA-1 gene
CC(C)CN(C(=O)Nc1ccc(Cl)cc1)C(C)c1nc2ccccc2c(=O)n1-c1ccc2ccccc2c1 (stereo not drawn) [[(4-chlorophenyl)amino]-N-(2-methylpropyl)-N-[(3-(2-naphthyl)-4-oxo(3-hydroquinazolin-2-yl))ethyl]carboxamide]	elevate cellular expression of the ABCA-1 gene
O=C(Nc1ccc(Cl)cc1)NC1CCCCC1 [[(4-chlorophenyl)amino]-N-cyclohexylcarboxamide]	elevate cellular expression of the ABCA-1 gene
Cc1ccc(NC(=O)N(CC(C)C)C(C)c2nc3ccccc3c(=O)n2-c2ccc3ccccc3c2)cc1 (stereo not drawn) [[(4-methylphenyl)amino]-N-(2-methylpropyl)-N-[(3-(2-naphthyl)-4-oxo(3-hydroquinazolin-2-yl))ethyl]carboxamide]	elevate cellular expression of the ABCA-1 gene
CCCCCc1ccc(NC(=O)NC2=NCCS2)cc1 [[(4-pentylphenyl)amino]-N-(1,3-thiazolin-2-yl)carboxamide]	elevate cellular expression of the ABCA-1 gene
O=C(NCC1CCCCC1)Nc1ccc2c(c1)CCC2 [[(cyclohexylmethyl)amino]-N-indan-5-ylcarboxamide]	elevate cellular expression of the ABCA-1 gene
CCOc1ccc2nc(NC(=O)NC(C)(C)C)sc2c1 [[t-butylamino]-N-(6-ethoxybenzothiazol-2-yl)carboxamide]	elevate cellular expression of the ABCA-1 gene
O=C(Nc1ccc(F)cc1F)c1cc2ccccc2s1 [benzo[b]thiophen-2-yl-N-(2,4-difluorophenyl)carboxamide]	elevate cellular expression of the ABCA-1 gene
O=C(Nc1nc2c(Cl)cccc2s1)c1cc2ccccc2s1 [benzo[b]thiophen-2-yl-N-(4-chlorobenzothiazol-2-yl)carboxamide]	elevate cellular expression of the ABCA-1 gene
O=C(Nc1nc2ccccc2s1)c1cc2ccccc2s1 [benzo[b]thiophen-2-yl-N-benzothiazol-2-ylcarboxamide]	elevate cellular expression of the ABCA-1 gene
Cc1cc(C(=O)c2cc3ccccc3o2)ccc1Cl [benzo[d]furan-2-yl 4-chloro-3-methylphenyl ketone]	elevate cellular expression of the ABCA-1 gene
COc1cccc(Nc2nc3ccccc3s2)c1 [benzothiazol-2-yl-(3-methoxyphenyl)amine]	elevate cellular expression of the ABCA-1 gene
O=C(Nc1ncc(-c2ccccc2)s1)C1CCCCC1 [cyclohexyl-N-(5-phenyl(1,3-thiazol-2-yl))carboxamide]	elevate cellular expression of the ABCA-1 gene
O=C(Nc1nc(-c2ccc3ccccc3c2)cs1)C1CCCC1 [cyclopentyl-N-(4-(2-naphthyl)(1,3-thiazol-2-yl))carboxamide]	elevate cellular expression of the ABCA-1 gene
O=C(Nc1ncc(-c2ccccc2)s1)C1CCCC1 [cyclopentyl-N-(5-phenyl(1,3-thiazol-2-yl))carboxamide]	elevate cellular expression of the ABCA-1 gene
O=C(Nc1nc(-c2ccccc2)ns1)C1CC1 [cyclopropyl-N-(3-phenyl(1,2,4-thiadiazol-5-yl))carboxamide]	elevate cellular expression of the ABCA-1 gene
O=C(Nc1ncc(-c2ccccc2)s1)C1CC1 [cyclopropyl-N-(5-phenyl(1,3-thiazol-2-yl))carboxamide]	elevate cellular expression of the ABCA-1 gene
